According to the NIST ThermoML archive (doi:10.1021/je900266h):

Experiment: refractive index (Na D-line) (dimensionless); wn = mass fraction of the nth substance listed
Details: 101 kPa, Liquid, Standard Abbe refractometry

CCO [ethanol] + O
refractive index
Details	288.15 K	298.15 K	308.15 K	318.15 K
w1 = 0.02468	1.33491	1.33402	1.33282	1.33124
w1 = 0.0538	1.33686	1.33587	1.33455	1.33301
w1 = 0.07815	1.33854	1.33765	1.33619	1.33449
w1 = 0.1014	1.34032	1.33915	1.33771	1.3358
w1 = 0.1249	1.34209	1.34095	1.33923	1.33736
w1 = 0.1528	1.34443	1.34294	1.34104	1.33895
w1 = 0.1778	1.34627	1.34475	1.34272	1.34054
w1 = 0.2036	1.34829	1.34651	1.34435	1.3418
w1 = 0.225	1.34976	1.34781	1.34551	1.34311
w1 = 0.247	1.35137	1.34934	1.34682	1.34418
w1 = 0.2699	1.35281	1.35056	1.3479	1.34519
w1 = 0.2955	1.35435	1.35212	1.34922	1.3464
w1 = 0.3241	1.35595	1.35363	1.35053	1.34772
w1 = 0.3468	1.3572	1.3546	1.35164	1.34853
w1 = 0.3723	1.35843	1.35567	1.35252	1.34932
w1 = 0.3959	1.3597	1.35665	1.35342	1.34997
w1 = 0.4255	1.36073	1.35765	1.35448	1.35103
w1 = 0.4462	1.36161	1.35831	1.35501	1.35147
w1 = 0.4735	1.36235	1.35919	1.35566	1.35212
w1 = 0.4969	1.36316	1.35969	1.3562	1.35251
w1 = 0.5239	1.36378	1.36042	1.35667	1.35301
w1 = 0.5458	1.36431	1.36078	1.35731	1.3533
w1 = 0.5709	1.36482	1.36134	1.3577	1.35369
w1 = 0.5972	1.36547	1.36186	1.35801	1.35385
w1 = 0.6203	1.36582	1.36199	1.35825	1.35417
w1 = 0.6467	1.36603	1.36243	1.35839	1.3543
w1 = 0.6694	1.36636	1.36263	1.35867	1.35455
w1 = 0.6959	1.36665	1.36288	1.35875	1.35454
w1 = 0.7187	1.36663	1.36306	1.35892	1.35469
w1 = 0.7494	1.36702	1.36313	1.35895	1.35471
w1 = 0.7672	1.36703	1.36317	1.35902	1.35475
w1 = 0.7993	1.36694	1.36318	1.35879	1.35484
w1 = 0.8187	1.36705	1.3632	1.35887	1.35478
w1 = 0.8451	1.36683	1.36289	1.3586	1.35457
w1 = 0.867	1.36684	1.36278	1.35844	1.35421
w1 = 0.9028	1.36637	1.3623	1.35782	1.35374
w1 = 0.9235	1.36603	1.36196	1.35743	1.35333
w1 = 0.9481	1.36528	1.36123	1.35677	1.35255
w1 = 0.9752	1.36454	1.36037	1.3559	1.35171
w1 = 1	1.36344	1.35922	1.35477	1.35068
